In patent US10392368B2, “Pyrazolo and triazolo bicyclic compounds as JAK kinase inhibitors” (THERAVANCE BIOPHARMA R&D IP, LLC, priority 2017, dated 2019):
Like-named read-outs stand apart in the source and are kept apart here.

Columns and labels:
[1] = system: IL-2 stimulated pSTAT5 in Tall-1 T cells; assay: Cellular JAK3 potency assay: inhibition of IL-2 stimulated pSTAT5 in Tall-1 T cells; assay type: cell-based, human; settings: for IC50: Homo sapiens, read-out: Tall-1 (pIC50) (converted)
Experimental: The potency of test compounds for inhibition of interleukin-2 (IL-2) stimulated STAT5 phosphorylation was measured in the Tall-1 human T cell line (DSMZ) using AlphaLisa. Because IL-2 signals through JAK3, this assay provides a measure of JAK3 cellular potency.
Compounds were serially diluted in DMSO and dispensed acoustically to empty wells. Assay media (phenol red-free DMEM (Life Technologies) supplemented with 10% FBS (ATCC)) was dispensed (4 μL/well) and plates shaken at 900 rpm for 10 mins. Cells were seeded at 45,000 cells/well in assay media (4 μL/well), and incubated at 37° C., 5% CO2 for 1 hour, followed by the addition of IL-2 (R&D Systems; final concentration 300 ng/ml) in pre-warmed assay media (4 μL) for 30 minutes. After cytokine stimulation, cells were lysed with 6 ul of 3× AlphaLisa Lysis Buffer (PerkinElmer) containing 1× PhosStop and Complete tablets (Roche). The lysate was shaken at 900 rpm for 10 minutes at room temperature (RT). Phosphorylated STAT5 was measured via the pSTAT5 AlphaLisa kit (PerkinElmer). Freshly prepared acceptor bead mixture was dispensed onto lysate (5 μL) under green filtered <100 lux light. Plates were shaken at 900 rpm for 2 mins, briefly spun down, and incubated for 2 hrs at RT in the dark. Donor beads were dispensed (5 μL) under green filtered <100 lux light. Plates were shaken at 900 rpm for 2 minutes, briefly spun down, and incubated overnight at RT in the dark.
To determine the inhibitory potency of test compounds in response to IL-2, the average emission intensity of beads bound to pSTAT5 was measured in a human T cell line. IC50 values were determined from analysis of the inhibition curves of signal intensity versus compound concentration. Data are expressed as pIC50 (negative decadic logarithm IC50) values (mean±standard deviation).

JAK1 = molecular target: T1, JAK1 (Homo sapiens, UniProt P23458); assay: Biochemical JAK1 kinase assay (LanthaScreen); settings: for Ki: read-out: JAK 1 (pKi) (converted)
T1 construct: GST; purchased Life Technologies
T1 sequence (P23458 whole entry): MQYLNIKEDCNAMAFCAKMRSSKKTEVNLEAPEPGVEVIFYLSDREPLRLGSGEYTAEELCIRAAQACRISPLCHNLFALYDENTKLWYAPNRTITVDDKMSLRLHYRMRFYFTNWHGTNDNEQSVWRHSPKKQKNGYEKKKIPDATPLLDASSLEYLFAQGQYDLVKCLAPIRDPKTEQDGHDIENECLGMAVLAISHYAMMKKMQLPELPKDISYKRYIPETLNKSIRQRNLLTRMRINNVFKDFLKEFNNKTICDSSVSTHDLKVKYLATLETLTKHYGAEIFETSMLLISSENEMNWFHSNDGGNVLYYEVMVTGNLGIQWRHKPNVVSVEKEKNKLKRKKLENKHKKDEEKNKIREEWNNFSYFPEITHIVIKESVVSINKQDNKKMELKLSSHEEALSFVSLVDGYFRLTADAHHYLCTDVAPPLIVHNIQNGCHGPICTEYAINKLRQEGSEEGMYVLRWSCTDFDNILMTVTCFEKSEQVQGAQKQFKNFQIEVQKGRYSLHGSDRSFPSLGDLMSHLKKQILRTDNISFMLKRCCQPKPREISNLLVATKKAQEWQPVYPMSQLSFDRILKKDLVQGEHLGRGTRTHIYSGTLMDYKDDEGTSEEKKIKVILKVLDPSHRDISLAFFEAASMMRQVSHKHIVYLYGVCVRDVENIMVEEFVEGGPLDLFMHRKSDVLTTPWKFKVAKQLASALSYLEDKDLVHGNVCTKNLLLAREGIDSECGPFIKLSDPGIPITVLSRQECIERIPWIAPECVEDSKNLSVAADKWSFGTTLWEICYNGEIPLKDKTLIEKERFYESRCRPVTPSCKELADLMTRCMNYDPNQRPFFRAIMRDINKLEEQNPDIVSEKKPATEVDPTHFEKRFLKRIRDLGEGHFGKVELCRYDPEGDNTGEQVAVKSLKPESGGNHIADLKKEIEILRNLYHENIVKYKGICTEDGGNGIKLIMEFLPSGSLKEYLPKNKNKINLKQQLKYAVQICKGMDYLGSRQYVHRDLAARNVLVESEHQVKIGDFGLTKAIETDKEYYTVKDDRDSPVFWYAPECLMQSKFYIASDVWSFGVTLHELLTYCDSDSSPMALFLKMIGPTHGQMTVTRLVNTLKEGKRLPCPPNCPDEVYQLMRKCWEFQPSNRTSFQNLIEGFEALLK
Experimental: (§1) A panel of four LanthaScreen JAK biochemical assays (JAK1, 2, 3 and Tyk2) were carried in a common kinase reaction buffer (50 mM HEPES, pH 7.5, 0.01% Brij-35, 10 mM MgCl2, and 1 mM EGTA). Recombinant GST-tagged JAK enzymes and a GFP-tagged STAT1 peptide substrate were obtained from Life Technologies.
(§2) Serially or discretely diluted compounds were pre-incubated with each of the four JAK enzymes and the substrate in white 384-well microplates (Corning) at ambient temperature for 1 h. ATP was subsequently added to initiate the kinase reactions in 10 μL total volume, with 1% DMSO. […] Kinase reactions were allowed to proceed for 1 hour at ambient temperature before a 10 μL preparation of EDTA (10 mM final concentration) and Tb-anti-pSTAT1 (pTyr701) antibody (Life Technologies, 2 nM final concentration) in TR-FRET dilution buffer (Life Technologies) was added. The plates were allowed to incubate at ambient temperature for 1 h before being read on the EnVision reader (Perkin Elmer). Emission ratio signals (520 nm/495 nm) were recorded and utilized to calculate the percent inhibition values based on DMSO and background controls.
(§3) For dose-response analysis, percent inhibition data were plotted vs. compound concentrations, and IC50 values were determined from a 4-parameter robust fit model with the Prism software (GraphPad Software). Results were expressed as pIC50 (negative logarithm of IC50) and subsequently converted to pKi (negative logarithm of dissociation constant, Ki) using the Cheng-Prusoff equation.

JAK3 = molecular target: T2, JAK3 (Homo sapiens, UniProt P52333); assay: Biochemical JAK3 kinase assay (LanthaScreen); set-up: GST; purchased Life Technologies; settings: for Ki: read-out: JAK 3 (pKi) (converted)
T2 sequence (P52333 1-1124): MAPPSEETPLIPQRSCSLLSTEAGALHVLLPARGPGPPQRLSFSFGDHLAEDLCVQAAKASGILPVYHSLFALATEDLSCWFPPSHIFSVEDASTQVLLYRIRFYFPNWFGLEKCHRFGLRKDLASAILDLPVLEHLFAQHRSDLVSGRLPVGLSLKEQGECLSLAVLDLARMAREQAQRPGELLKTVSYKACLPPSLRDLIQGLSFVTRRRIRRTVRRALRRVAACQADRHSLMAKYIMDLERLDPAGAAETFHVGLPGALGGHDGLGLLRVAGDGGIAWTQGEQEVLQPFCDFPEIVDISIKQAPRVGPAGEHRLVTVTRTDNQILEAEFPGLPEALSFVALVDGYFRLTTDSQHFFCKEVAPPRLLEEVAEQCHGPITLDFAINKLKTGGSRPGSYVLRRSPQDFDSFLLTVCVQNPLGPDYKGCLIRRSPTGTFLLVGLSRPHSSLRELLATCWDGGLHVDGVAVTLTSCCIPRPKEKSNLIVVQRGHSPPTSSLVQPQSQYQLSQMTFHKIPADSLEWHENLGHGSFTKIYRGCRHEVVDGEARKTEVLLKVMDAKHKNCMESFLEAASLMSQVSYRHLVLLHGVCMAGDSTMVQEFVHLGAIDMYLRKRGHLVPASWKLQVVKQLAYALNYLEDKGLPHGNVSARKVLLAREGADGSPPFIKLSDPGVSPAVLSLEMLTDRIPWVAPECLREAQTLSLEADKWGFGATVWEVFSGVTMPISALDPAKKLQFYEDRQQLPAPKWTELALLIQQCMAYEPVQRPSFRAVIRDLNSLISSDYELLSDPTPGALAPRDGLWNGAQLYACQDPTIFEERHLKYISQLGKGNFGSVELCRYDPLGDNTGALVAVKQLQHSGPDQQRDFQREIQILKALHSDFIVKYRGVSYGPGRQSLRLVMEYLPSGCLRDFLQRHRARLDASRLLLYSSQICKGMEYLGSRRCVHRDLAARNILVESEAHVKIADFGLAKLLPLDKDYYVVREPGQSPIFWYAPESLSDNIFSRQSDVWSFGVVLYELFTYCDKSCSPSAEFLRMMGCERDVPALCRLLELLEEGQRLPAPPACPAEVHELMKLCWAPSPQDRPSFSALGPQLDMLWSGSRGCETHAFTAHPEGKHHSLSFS
Experimental: as §1, §2, §3

[2] = IL-2 stimulated pSTAT5 in Tall-1 T cells
[3] = selectivity: difference of pKi JAK3 and pKi JAK1
[4] = IL-2 stimulated pSTAT5, Tall-1 T cells
[5] = selectivity JAK3 over JAK1, difference of pKi
[6] = TALL-1, IL-2 stimulated pSTAT5 in Tall-1 T cells

C=CC(=O)N1CC[C@H](Oc2cc(-c3ccc(O)cc3)nc3[nH]ncc23)C1 [Compound 1-9]
Tall-1 (pIC50) [1, 2]: C (a pIC50 value between 6 and 6.7 (IC50 between 1 μM and 200 nM))
JAK 1 (pKi) (JAK1): E (a pKi value of 7 or below (Ki of 100 nM or above))
JAK 3 (pKi) (JAK3): A (a pKi value≥10 (Ki≤0.1 nM))
JAK3 (pKi)-JAK1 (pKi) (JAK3; [3]): A (a value of 3 or above)

C=CC(=O)N1C2CCC1CC(Oc1nc(-c3ccc(O)cc3)cc3[nH]ncc13)C2 (stereo not drawn) [Compound 9-6]
Tall-1 (pIC50) [1, 4]: A (a pIC50 value≥7.5 (IC50≤32 nM))
JAK 1 (pKi) (JAK1): E (a pKi value of 7 or below (Ki of 100 nM or above))
JAK 3 (pKi) (JAK3): B (a pKi value between 9 and 10 (Ki between 1 nM and 0.1 nM))
JAK3 (pKi)-JAK1 (pKi) (JAK3; [5]): A (a value of 3 or above)

C=CC(=O)N1CC(C)(COc2cc(-c3ccc(O)c(Cl)c3)cc3[nH]ncc23)C1 [Compound 3-10]
Tall-1 (pIC50) [1, 2]: A (a pIC50 value≥7.5 (IC50≤32 nM))
JAK 1 (pKi) (JAK1): E (a pKi value of 7 or below (Ki of 100 nM or above))
JAK 3 (pKi) (JAK3): B (a pKi value between 9 and 10 (Ki between 1 nM and 0.1 nM))
JAK3 (pKi)-JAK1 (pKi) (JAK3; [3]): A (a value of 3 or above)

CN(C)C/C=C/C(=O)N1CC[C@H](Oc2nc(-c3ccc(O)c(F)c3)cc3[nH]ncc23)C1 [Compound 1-28]
IC50 [1, 6]: 200 to 1000 nM
Ki (JAK1): > 100 nM
Ki (JAK3): 0.1 to 1 nM
JAK3 (pKi)-JAK1 (pKi) (JAK3; [3]): B (a value of 2.3 to 3)

CN(C)CC=CC(=O)N1C2CCC1CC(Oc1cc(-c3ccc(O)c(Cl)c3)cc3[nH]ncc13)C2 (stereo not drawn) [Compound 10-3]
Tall-1 (pIC50) [1, 4]: B (a pIC50 value between 6.7 (included) and 7.5 (IC50 between 200 nM and 32 nM))
JAK 1 (pKi) (JAK1): D (a pKi value between 7 and 8 (Ki between 100 nM and 10 nM))
JAK 3 (pKi) (JAK3): B (a pKi value between 9 and 10 (Ki between 1 nM and 0.1 nM))
JAK3 (pKi)-JAK1 (pKi) (JAK3; [5]): B (a value of 2.3 to 3)

C=CC(=O)N1CC(COc2nc(-c3ccc(O)cc3)nc3[nH]ncc23)(OC)C1 [Compound 3-76]
IC50 [1, 6]: 31.6 to 200 nM
Ki (JAK1): > 100 nM
Ki (JAK3): < 0.1 nM
JAK3 (pKi)-JAK1 (pKi) (JAK3; [3]): A (a value of 3 or above)

C=CC(=O)N1CC[C@H]1COc1cc(-c2ccc(O)cc2)cc2[nH]ncc12 [Compound 12-25]
IC50 ([1]; TALL-1, IL-2 stimulated pSTAT5, Tall-1 T cells): 200 to 1000 nM
Ki (JAK1): > 100 nM
Ki (JAK3): 0.1 to 1 nM
JAK3 (pKi)-JAK1 (pKi) (JAK3; [5]): B (a value of 2.3 to 3)

C=CC(=O)N1CCCC(Oc2cc(-c3ccc(O)c(F)c3)nc3[nH]ncc23)C1 (stereo not drawn) [Compound 8-8]
Tall-1 (pIC50) [1, 4]: B (a pIC50 value between 6.7 (included) and 7.5 (IC50 between 200 nM and 32 nM))
JAK 1 (pKi) (JAK1): E (a pKi value of 7 or below (Ki of 100 nM or above))
JAK 3 (pKi) (JAK3): A (a pKi value≥10 (Ki≤0.1 nM))
JAK3 (pKi)-JAK1 (pKi) (JAK3; [5]): A (a value of 3 or above)

CN(C)C/C=C/C(=O)N1CC(Oc2cc(-c3ccc(O)cc3)cc3[nH]ncc23)(C(F)(F)F)C1 [Compound 5-25]
Tall-1 (pIC50) [1, 4]: A (a pIC50 value≥7.5 (IC50≤32 nM))
JAK 1 (pKi) (JAK1): E (a pKi value of 7 or below (Ki of 100 nM or above))
JAK 3 (pKi) (JAK3): B (a pKi value between 9 and 10 (Ki between 1 nM and 0.1 nM))
JAK3 (pKi)-JAK1 (pKi) (JAK3; [5]): A (a value of 3 or above)
